Assay results: paper PMC9837764 (Nature Communications, 2023)
“And” between values parts separate entries of the source, which are not always exact repeats. Equal entries are not always repeated. Where two headings read alike, the source gives them in different places.

Columns and labels:
[1] = Pharmacokinetics in mouse plasma; type: in vivo, CD1 mice (Mus musculus); parameters: MB-905 level (Fig5A): unit not given here; details: for MB-905 level (Fig5A): individual animals; for k el: read-out: Ke (converted)
SARS-CoV-2 Gamma VoC [2] = test system: SARS-CoV-2 Gamma VoC; parameters: species or system Syrian hamsters (Mesocricetus auratus); details: hamster, in vivo, 140 mg/kg
SARS-CoV-2 [3] = experiment: Yield-reduction assay, SARS-CoV-2 in Calu-3 cells (titers as PFU/mL in Vero cells); details: for Inhibition of SARS-CoV-2 infectious titers (Fig1B source data, replicates): additional treatment at 24 h; for Inhibition of SARS-CoV-2 infectious titers (Fig1A source data, replicates): one treatment
in vivo = details: both sexes, mouse, mice
Description: For the MTD assay (OECD 425), mice (3 animals of each sex/group) were divided into five experimental groups, and the up and down procedure was applied to which 175 mg/kg was used as the first dose. […] Mortality, morbidity, body weight, food consumption, and general and detailed clinical signs of toxicity were evaluated. At necropsy, vital (brain, heart, liver, spleen, kidneys and adrenal glands) and reproductive organs (ovaries, testicles, and epididymis) were carefully removed, weighed and stored for further analysis (if necessary).

SARS-CoV-2 Gamma VoC [4] = details: hamster, in vivo, 140 mg/kg
[5] = test system: Salmonella typhimurium TA 102; experiment: Ames test, strain TA 102
IL-6 = IL-6 in supernatant of SARS-CoV-2-infected human primary monocytes; type: cell-based; details: infected monocytes, drugs at 10 µM, 24 h
Description: (§1) Human primary monocytes were obtained after 3 h of plastic adherence of peripheral blood mononuclear cells (PBMCs). The use of primary human cell was approved by Institutional Review Board from the Oswaldo Cruz Foundation under protocol 49971421.8.0000.5248 with signed informed consent in accordance with the Hemotherapy Service of Hospital Clementino Fraga from the Federal University of Rio de Janeiro. All volunteers were de-identified. PBMCs were isolated from healthy donors by density gradient centrifugation (Ficoll-Paque, GE Healthcare). PBMCs (2.0 × 10^6 cells) were plated onto 48-well plates (NalgeNunc) in RPMI-1640 without serum for 2–4 h. Nonadherent cells were removed, and the remaining monocytes were maintained in DMEM with 5% human serum (HS; Millipore) and penicillin/streptomycin. The purity of human monocytes was above 95%, as determined by flow cytometric analysis (FACScan; Becton Dickinson) using anti-CD3 (BD Biosciences, cat # 555342, 1:40), anti-CD16 (Southern Biotech, cat # 561313, 1:20) and APC mouse IgG2a isotype (BD Biosciences, cat # 550882, 1/40) and PE mouse IgG1 isotype (BD Biosciences, 555749, 1/20).

SARS-CoV-2 [6] = experiment: Cell-associated virus RNA in SARS-CoV-2-infected human primary monocytes; type: cell-based; details: for Cell-associated virus RNA loads, inhibition (Fig1C source data, per donor): monocytes
Description: as §1
Total viral RNA from a culture supernatant and/or monolayers was extracted using QIAamp Viral RNA (Qiagen®) according to the manufacturer’s instructions. Quantitative RT‒PCR was performed using GoTaq® Probe qPCR and RT-qPCR Systems (Promega) in a StepOne™ Real-Time PCR System (Thermo Fisher Scientific) ABI PRISM 7500 Sequence Detection System (Applied Biosystems). Amplifications were carried out in 25 µL reaction mixtures containing 2× reaction mix buffer, […] of each primer, 10 µM of probe, and 5 µL of RNA template. Primers, probes, and cycling conditions recommended by the Centers for Disease Control and Prevention (CDC) protocol were used to detect SARS-CoV-2[52]. The standard curve method was employed for virus quantification. For reference to the cell amounts used, the housekeeping gene RNAse P (F-5′-[…] -3′, R-5′[…] -3′, P-5′-FAM-[…] -BHQ-1-3′) was amplified. The Ct values for this target were compared to those obtained for different cell amounts, 10^7 to 10^2, for calibration.

[7] = both sexes, CD1, mouse, plasma, iv, mice, 3 mg/kg (i.v.)
[8] = both sexes, CD1, mouse, plasma, po, mice, 30 mg/kg (p.o.)
[9] = both sexes, CD1, mouse, plasma, po, mice, 550 mg/kg (p.o.)

c1coc(CNc2ncnc3[nH]cnc23)c1 [MB-905, N6-furfurylaminopurine]
MB-905 level (Fig5A) ([1]; 140 mg/kg, 0.25 h): 544 and 555 and 638
MB-905 level (Fig5A) ([1]; 140 mg/kg, 1 h): 356 and 299 and 551
MB-905 level (Fig5A) ([1]; 140 mg/kg, 3 h): 447 and 177 and 154
MB-905 level (Fig5A) ([1]; 140 mg/kg, 8 h): 105 and 316 and 50
MB-905 level (Fig5A) ([1]; 140 mg/kg, 12 h): 0
MB-905 level (Fig5A) ([1]; 500 mg/kg, 0.25 h): 1228 and 1306 and 1348
MB-905 level (Fig5A) ([1]; 500 mg/kg, 1 h): 1348 and 946 and 1312
MB-905 level (Fig5A) ([1]; 500 mg/kg, 3 h): 894 and 544 and 652
MB-905 level (Fig5A) ([1]; 500 mg/kg, 8 h): 833 and 340 and 437
MB-905 level (Fig5A) ([1]; 500 mg/kg, 12 h): 103 and 13 and 0
AUC [1, 7]: 66.4 ng·h/mL
AUC(0-t) [1, 7]: 55.5 ng·h/mL
Cmax [1, 7]: 155 ng/mL
Tmax [1, 7]: 4.98 min
clearance [1, 7]: 918 mL/min/kg
half-life [1, 7]: 13.2 min
k el [1, 7]: 0.000858 s⁻¹
Vd ([1]; both sexes, CD1, mouse, plasma, iv, mice, 3 mg/kg (i.v.), read-out: Vz): 19 L/kg
bioavailability ([1]; both sexes, CD1, mouse, plasma, po, 30 mg/kg, mice, 30 mg/kg (p.o.), read-out: F): 53.5%
bioavailability ([1]; both sexes, CD1, mouse, plasma, po, 30 mg/kg, mice, read-out: Oral bioavailability): > 50%
bioavailability ([1]; both sexes, CD1, mouse, plasma, po, 550 mg/kg, mice, 550 mg/kg (p.o.), read-out: F): 36.1%
AUC [1, 8]: 356 ng·h/mL
AUC(0-t) [1, 8]: 356 ng·h/mL
Cmax [1, 8]: 570 ng/mL
Tmax [1, 8]: 4.98 min
half-life [1, 8]: 66.6 min
k el [1, 8]: 0.000172 s⁻¹
AUC [1, 9]: 4390 ng·h/mL
AUC(0-t) [1, 9]: 4390 ng·h/mL
Cmax [1, 9]: 1050 ng/mL
Tmax [1, 9]: 30 min
half-life [1, 9]: 163 min
k el [1, 9]: 6.94e-05 s⁻¹
CL ([1]; mice, 30 mg/kg (p.o.)): 1060.15 mL/min/kg
Vz ([1]; mice, 30 mg/kg (p.o.)): 102.21 L/kg
CL ([1]; mice, 550 mg/kg (p.o.)): 1843.18 mL/min/kg
Vz ([1]; mice, 550 mg/kg (p.o.)): 434.2 L/kg
Lung injury (SARS-CoV-2 Gamma VoC [2]): protected this organ
EC50 (SARS-CoV-2 [3]; Severe acute respiratory syndrome coronavirus 2, Calu-3): 310 ± 50 nM
EC50 (SARS-CoV-2 [3]; Severe acute respiratory syndrome coronavirus 2, Calu-3, 24 h): 30 ± 4 nM
EC90 (SARS-CoV-2 [3]; Severe acute respiratory syndrome coronavirus 2, read-out: In vitro EC90 values, range): 2100 to 6300 nM
Inhibition of SARS-CoV-2 infectious titers (Fig1B source data, replicates) (SARS-CoV-2 [3]; Drug 0.001, Calu-3, 48 h): 16 and 20 and 22
Inhibition of SARS-CoV-2 infectious titers (Fig1B source data, replicates) (SARS-CoV-2 [3]; Drug 0.01): 22 and 55 and 63
Inhibition of SARS-CoV-2 infectious titers (Fig1B source data, replicates) (SARS-CoV-2 [3]; Drug 0.1): 66 and 47 and 65
Inhibition of SARS-CoV-2 infectious titers (Fig1B source data, replicates) (SARS-CoV-2 [3]; Drug 1): 92 and 72 and 69
Inhibition of SARS-CoV-2 infectious titers (Fig1B source data, replicates) (SARS-CoV-2 [3]; Drug 10): 98 and 97 and 96
Antiviral activity, SARS-CoV-2 replication (SARS-CoV-2 [3]; huh-7 and calu-3 cells (Supplementary Fig. 2)): inhibited SARS-CoV-2 replication in a concentration-dependent manner
Inhibition of SARS-CoV-2 infectious titers (Fig1A source data, replicates) (SARS-CoV-2 [3]; Drug 0.001, Calu-3, MOI 0.1, 48 h): 5 and 4 and 2
Inhibition of SARS-CoV-2 infectious titers (Fig1A source data, replicates) (SARS-CoV-2 [3]; Drug 0.01): 15 and 4 and 13
Inhibition of SARS-CoV-2 infectious titers (Fig1A source data, replicates) (SARS-CoV-2 [3]; Drug 0.1): 22 and 39 and 30
Inhibition of SARS-CoV-2 infectious titers (Fig1A source data, replicates) (SARS-CoV-2 [3]; Drug 1): 60 and 91 and 74
Inhibition of SARS-CoV-2 infectious titers (Fig1A source data, replicates) (SARS-CoV-2 [3]; Drug 10): 66 and 96 and 88
NOAEL (in vivo): 500 mg/kg
MTD (in vivo; oral, read-out: Recommended dose for repeated exposure (MTD assay)): 550 mg/kg
Tolerability (body weight) (SARS-CoV-2 Gamma VoC [4]): tolerated
Mutagenicity TA 102 +S9 ([5]; 8 µg/mL): -
Mutagenicity TA 102 -S9 ([5]; 8 µg/mL): -
Mutagenicity TA 102 +S9 ([5]; 40 µg/mL): -
Mutagenicity TA 102 -S9 ([5]; 40 µg/mL): -
Mutagenicity TA 102 +S9 ([5]; 200 µg/mL): -
Mutagenicity TA 102 -S9 ([5]; 200 µg/mL): -
Mutagenicity TA 102 +S9 ([5]; 1,000 µg/mL): -
Mutagenicity TA 102 -S9 ([5]; 1,000 µg/mL): -
Mutagenicity TA 102 +S9 ([5]; 5,000 µg/mL): -
Mutagenicity TA 102 -S9 ([5]; 5,000 µg/mL): -
IL-6 levels in the culture supernatant (Fig1E source data, per donor) (IL-6): 1.3 and 0.5 and 1.0 and 2.4 and 0.8 and 1.4 and 2.3
Cell-associated virus RNA levels in SARS-CoV-2-infected monocytes (SARS-CoV-2 [6]; Fig. 1c): reduced cell-associated virus RNA levels in a concentration-dependent manner
Cell-associated virus RNA loads, inhibition (Fig1C source data, per donor) (SARS-CoV-2 [6]; 24 h, Drug 1): 41 and 30 and 63 and 20 and 2 (2×)
Cell-associated virus RNA loads, inhibition (Fig1C source data, per donor) (SARS-CoV-2 [6]; 24 h, Drug 10): 93 and 42 and 46 and 13 and 6 and 12
Cell-associated virus RNA loads, inhibition (Fig1C source data, per donor) (SARS-CoV-2 [6]; MOI 0.1, 24 h, Drug 0.1): 2 (3×) and 5 and 3 and 1
